For one series, the system named is MDA-MB-436. Put plainly: Antiproliferative activity against human MDA-MB-436 cells transfected with SiRNA assessed as inhibition of cell proliferation incubated for 5 days by MTT assay. It is filed as functional, cell-based. Conditions: time 5.0 day.
A further series relates to SW48. The experiment in a line: Antiproliferative activity against BRCA2-deficient human SW48 cells assessed as inhibition of cell proliferation incubated for 5 days by MTT assay. The format is functional, cell-based. Conditions: SW48, 120 h, read-out: IC50.
A further series concerns SK-OV-3. Put plainly: Antiproliferative activity against BRCA-proficient human SK-OV-3 cells assessed as inhibition of cell proliferation incubated for 5 days by MTT assay. The format is functional, cell-based. Particulars: SK-OV-3, 120 h.
A short description of series [1]: Antiproliferative activity against human MCF-10A cells assessed as inhibition of cell proliferation incubated for 5 days by MTT assay. It is filed as toxicity, cell-based. Conditions: human, MCF-10A cells.
Series [2] can be described thus: Metabolic stability in human liver microsome assessed as half life. Particulars: liver microsomes. It is filed as ADME.
The nature of series [3]: Cmax in Sprague-Dawley rat at 1 mg/kg, iv by LC-MS/MS analysis. The format is ADME, organism-based. Conditions: in vivo.
A short description of series [4]: AUC (0 to infinity) in Sprague-Dawley rat at 1 mg/kg, iv by LC-MS/MS analysis. The format is ADME, organism-based. Conditions: in vivo.
Series [5] in a line: Volume of distribution at steady state in Sprague-Dawley rat at 1 mg/kg, iv by LC-MS/MS analysis. It is filed as ADME, organism-based. Conditions: in vivo, read-out: Vdss.
The nature of series [6]: Apparent volume of distribution in Sprague-Dawley rat at 1 mg/kg, iv by LC-MS/MS analysis. It is filed as ADME, organism-based. Conditions: in vivo, read-out: Vz.
Series [7] in a line: Clearance in Sprague-Dawley rat at 1 mg/kg, iv by LC-MS/MS analysis. It is filed as ADME, organism-based. Particulars: in vivo.
Series [8] concerns the target T1, Protein mono-ADP-ribosyltransferase TIPARP (Homo sapiens, UniProt Q7Z3E1).
T1 sequence (Q7Z3E1 whole entry): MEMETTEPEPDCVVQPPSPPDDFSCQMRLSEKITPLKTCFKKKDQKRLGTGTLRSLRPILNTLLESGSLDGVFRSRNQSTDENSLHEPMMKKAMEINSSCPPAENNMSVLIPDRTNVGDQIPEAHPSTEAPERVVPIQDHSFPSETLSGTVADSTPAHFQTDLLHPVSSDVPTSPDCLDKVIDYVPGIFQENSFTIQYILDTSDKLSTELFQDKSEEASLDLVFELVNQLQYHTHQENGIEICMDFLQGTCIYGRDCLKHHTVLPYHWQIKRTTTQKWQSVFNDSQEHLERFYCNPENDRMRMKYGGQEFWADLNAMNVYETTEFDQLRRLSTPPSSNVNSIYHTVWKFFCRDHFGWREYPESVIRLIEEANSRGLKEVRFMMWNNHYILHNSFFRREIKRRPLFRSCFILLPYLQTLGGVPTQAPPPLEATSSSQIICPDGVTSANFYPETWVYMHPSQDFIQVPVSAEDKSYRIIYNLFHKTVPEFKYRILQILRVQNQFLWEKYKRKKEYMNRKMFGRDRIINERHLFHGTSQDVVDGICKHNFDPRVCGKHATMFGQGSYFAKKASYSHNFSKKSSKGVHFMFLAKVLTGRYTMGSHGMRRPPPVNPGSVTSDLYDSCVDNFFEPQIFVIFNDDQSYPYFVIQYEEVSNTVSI
The experiment in a line: Inhibition of PARP7 (unknown origin).

The subject of series [9] is MDA-MB-231. The experiment in a line: Induction of apoptosis in human MDA-MB-231 cells at 2 uM incubated for 3 days by Annexin V-APC/7-AAD based flow cytometry analysis. The format is functional. Particulars: time 3 day.
Series [10] has as its system MDA-MB-231. The experiment in a line: Induction of DNA damage in human MDA-MB-231 cells assessed as increase in gammaH2AX foci at 2 uM incubated for 3 days by DAPI staining based confocal laser scanning microscopic analysis. It is filed as functional, cell-based. Conditions: time 3.0 day.
Series [11] deals with MDA-MB-231. The experiment in a line: Antitumor activity against human MDA-MB-231 cells xenografted in BALB/c mouse assessed as tumor growth inhibition at 40 mg/kg, ip administered for 21 days. The format is functional. Particulars: MDA-MB-231, 504 h, time 21 day, read-out: TGI.
Series [12] is described as follows: Toxicity in BALB/c mouse xenografted with human MDA-MB-231 cells assessed as increase in body weight at 20 to 40 mg/kg, ip administered for 21 days. It is filed as organism-based. Conditions: in vivo, 504 h, dose 20-40 mg/kg, time 21 day.
A short description of series [13]: Toxicity in BALB/c mouse xenografted with human MDA-MB-231 cells assessed as heart damage at 20 to 40 mg/kg, ip administered for 21 days by H and E staining based analysis. It is filed as organism-based. Conditions: in vivo, 504 h, dose 20-40 mg/kg, time 21 day.
Series [14] is described as follows: Toxicity in BALB/c mouse xenografted with human MDA-MB-231 cells assessed as liver damage at 20 to 40 mg/kg, ip administered for 21 days by H and E staining based analysis. The format is organism-based. Conditions: in vivo, 504 h, dose 20-40 mg/kg, time 21 day.
Series [15] deals with MDA-MB-231. The experiment in a line: Antiproliferative activity against 53BP1-knockdown human MDA-MB-231 cells incubated for 24 hrs by MTT assay. It is filed as functional, cell-based.
Series [16] concerns the target Poly [ADP-ribose] polymerase 1 (Homo sapiens, UniProt P09874). Conditions: dose 10.0 nM, time 90.0 min.

Active and inactive are the calls of the source. The calls are words filed in the database; no cut-off is given here.

Data on one compound can be found in ChEMBL document CHEMBL5518204, “Discovery and Proof of Concept of Potent Dual Polθ/PARP Inhibitors for Efficient Treatment of Homologous Recombination-Deficient Tumors” (J Med Chem, 2024).

Sequence of Poly [ADP-ribose] polymerase 1 (P09874 whole entry): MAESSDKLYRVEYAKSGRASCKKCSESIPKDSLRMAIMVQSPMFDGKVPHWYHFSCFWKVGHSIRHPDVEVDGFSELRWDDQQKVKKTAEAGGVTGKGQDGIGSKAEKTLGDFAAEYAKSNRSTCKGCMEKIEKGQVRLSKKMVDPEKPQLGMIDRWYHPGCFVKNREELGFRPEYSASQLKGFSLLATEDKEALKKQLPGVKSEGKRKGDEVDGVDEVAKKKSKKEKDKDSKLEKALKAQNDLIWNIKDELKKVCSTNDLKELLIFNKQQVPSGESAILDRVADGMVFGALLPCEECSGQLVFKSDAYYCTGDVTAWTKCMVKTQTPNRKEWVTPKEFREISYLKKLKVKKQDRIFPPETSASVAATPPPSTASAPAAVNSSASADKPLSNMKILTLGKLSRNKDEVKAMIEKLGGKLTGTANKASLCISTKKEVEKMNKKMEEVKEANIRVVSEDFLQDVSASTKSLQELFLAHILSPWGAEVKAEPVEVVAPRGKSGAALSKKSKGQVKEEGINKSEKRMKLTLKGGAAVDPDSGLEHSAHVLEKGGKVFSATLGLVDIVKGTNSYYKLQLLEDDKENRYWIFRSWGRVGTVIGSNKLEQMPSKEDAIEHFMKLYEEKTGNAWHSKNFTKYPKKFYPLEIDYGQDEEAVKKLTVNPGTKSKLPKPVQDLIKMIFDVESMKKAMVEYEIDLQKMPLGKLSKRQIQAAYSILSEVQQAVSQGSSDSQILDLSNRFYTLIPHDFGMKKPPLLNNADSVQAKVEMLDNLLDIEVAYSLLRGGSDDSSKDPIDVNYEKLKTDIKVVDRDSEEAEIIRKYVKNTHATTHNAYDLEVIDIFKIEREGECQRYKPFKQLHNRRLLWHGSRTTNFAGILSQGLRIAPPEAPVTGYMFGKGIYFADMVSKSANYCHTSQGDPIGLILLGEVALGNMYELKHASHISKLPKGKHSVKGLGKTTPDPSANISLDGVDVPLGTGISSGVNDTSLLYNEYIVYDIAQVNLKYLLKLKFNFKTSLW

As to `COc1ccc(Cl)cc1-c1cc(C)ncc1C(=O)Nc1nnc(OCC2CCN(C(=O)c3cc(Cc4n[nH]c(=O)c5ccccc45)ccc3F)CC2)s1`, the result with MDA-MB-436, in the series on MDA-MB-231 [10] and in the series with MDA-MB-231 [15] was Active. In addition, the IC50 stood at 2900 nM with SW48, 18900 nM with SK-OV-3 and 194 nM in series [8]. Moreover, in [1], the IC50 at 5 days was greater than 80000 nM. Besides, the half-life in series [2] is 2.35 min. This compound came in with a Cmax in [3] of 1950 ng/mL. The compound also registered a total exposure AUC(0-inf) in [4] of 738 ng·h/mL. For the same compound, the Vd in series [5] turned out to be 1.12 L/kg; in series [6], 3.97 L/kg. In series [7], this compound showed a clearance of 22.7 mL/min/kg. Besides, the Activity is listed as 26.7% in the series with MDA-MB-231 [9], “Non-Toxic” in [12], “Non-Toxic” in series [13] and “Non-Toxic” in series [14]. For the same compound, the inhibition in vivo at 40 mg/kg in the series with MDA-MB-231 [11] came to 74.7%. Moreover, the inhibition in series [16] stood at 71.1%.
